# Assay results from patent publication US7553867B2, “Furan or thiophene derivative and medicinal use thereof” (Takeda Pharmaceutical Company Limited, priority 2002, dated 2009).
row,SMILES,melting point [°C]
1,"Cc1oc(-c2ccccc2)cc1COc1cccc(CSC(C)(C)C(=O)O)c1 [Example 6(119), 2-Methyl-2-({3-[(2-methyl-5-phenyl-3-furyl)methoxy]benzyl}thio)propionic acid]",113 to 114
2,"Cc1oc(-c2ccc(C(F)(F)F)cc2)cc1CCc1ncc(CC(=O)O)o1 [Example 13(5), [2-(2-{2-Methyl-5-[4-(trifluoromethyl)phenyl]-3-furyl}ethyl)-1,3-oxazol-5-yl]acetic acid]",143 to 144
3,"Cc1oc(-c2ccc(C(F)(F)F)cc2)cc1COc1cccc(CSC(C)(C)C(=O)O)c1F [Example 6(96), 2-{[2-Fluoro-3-({2-methyl-5-[4-(trifluoromethyl)phenyl]-3-furyl}methoxy)benzyl]thio}-2-methylpropionic acid]",106 to 108
4,"Cc1oc(-c2cccc(F)c2)cc1COc1ccc(SC(C)(C)C(=O)O)cc1 [Example 6(115), 2-[(4-{[5-(3-Fluorophenyl)-2-methyl-3-furyl]methoxy}phenyl)thio]-2-methylpropionic acid]",146 to 147
5,"Cc1oc(-c2ccc(C(F)(F)F)cc2)cc1CCCOc1ccc(SC(C)(C)C(=O)O)cc1 [Example 6(122), 2-Methyl-2-{[4-(3-{2-methyl-5-[4-(trifluoromethyl)phenyl]-3-furyl}propoxy)phenyl]thio}propionic acid]",127 to 128
6,"Cc1oc(-c2ccc(F)cc2)cc1COc1cccc(CCCC(=O)O)c1 [Example 6(19), 4-(3-{[5-(4-Fluorophenyl)-2-methyl-3-furyl]methoxy}phenyl)butanoic acid]",98 to 99
7,"CCOC(=O)C(C)(C)Oc1ccc(/C=C\c2cc(-c3ccc(C(F)(F)F)cc3)oc2C)cc1 [Example 21-b, Ethyl 2-methyl-2-[4-((Z)-2-{2-methyl-5-[4-(trifluoromethyl)phenyl]-3-furyl}ethenyl)phenoxy]propionate]",84 to 85
8,"Cc1ccc(-c2cc(COc3cccc(CSC(C)(C)C(=O)O)c3)c(C)o2)cc1 [Example 6(120), 2-Methyl-2-[(3-{[2-methyl-5-(4-methylphenyl)-3-furyl]methoxy}benzyl)thio]propionic acid]",121 to 122
9,"Cc1nc(CCc2cc(-c3ccc(C(F)(F)F)cc3)oc2C)oc1CC(=O)O [Example 13(6), [4-Methyl-2-(2-{2-methyl-5-[4-(trifluoromethyl)phenyl]-3-furyl}ethyl)-1,3-oxazol-5-yl]acetic acid]",120 to 121
10,"COc1ccc(-c2cc(COc3cccc(CSC(C)(C)C(=O)O)c3)c(C)o2)cc1 [Example 6(110), 2-[(3-{[5-(4-Methoxyphenyl)-2-methyl-3-furyl]methoxy}benzyl)thio]-2-methylpropionic acid]",96 to 97
11,"CCc1oc(-c2ccc(C(F)(F)F)cc2)cc1CCCOc1ccc(CC(=O)O)cc1Cl [Example 6(93), [3-Chloro-4-(3-{2-ethyl-5-[4-(trifluoromethyl)phenyl]-3-furyl}propoxy)phenyl]acetic acid]",112 to 113
12,"Cc1oc(-c2ccc(F)cc2)cc1COc1cccc(COCC(=O)O)c1 [Example 6(11), [(3-{[5-(4-Fluorophenyl)-2-methyl-3-furyl]methoxy}benzyl)oxy]acetic acid]",109 to 110
13,"CCc1oc(-c2ccc(C(F)(F)F)cc2)cc1CCCOc1cc(CC(=O)O)ccc1OC [Example 6(40), [3-(3-{2-Ethyl-5-[4-(trifluoromethyl)phenyl]-3-furyl}propoxy)-4-methoxyphenyl]acetic acid]",137 to 138
14,"COc1cccc(-c2cc(COc3ccc(OC(C)(C)C(=O)O)cc3)c(C)o2)c1 [Example 6(60), 2-(4-{[5-(3-Methoxyphenyl)-2-methyl-3-furyl]methoxy}phenoxy)-2-methylpropionic acid]",111 to 112
15,"Cc1oc(-c2ccc(C(F)(F)F)cc2)cc1CCc1nc(C(C)C)c(CC(=O)O)o1 [Example 13(7), [4-Isopropyl-2-(2-{2-methyl-5-[4-(trifluoromethyl)phenyl]-3-furyl}ethyl)-1,3-oxazol-5-yl]acetic acid]",126 to 128
16,"Cc1cc(-c2ccc(C(F)(F)F)cc2)oc1COc1ccc(CC(C)(C)C(=O)O)cc1 [Example 20(1), 2,2-Dimethyl-3-[4-({3-methyl-5-[4-(trifluoromethyl)phenyl]-2-furyl}methoxy)phenyl]propionic acid]",124 to 126
17,"CCCCc1oc(-c2ccc(C(F)(F)F)cc2)cc1CCC(=O)Nc1cccc(CSCC(=O)O)c1 [Example 2(5), ({3-[(3-{2-Butyl-5-[4-(trifluoromethyl)phenyl]-3-furyl}propionyl)amino)benzyl}thio) acetic acid]",137 to 138
18,"Cc1oc(-c2cccc(C(F)(F)F)c2)cc1COc1ccc(SC(C)(C)C(=O)O)cc1 [Example 6(108), 2-Methyl-2-{[4-({2-methyl-5-[3-(trifluoromethyl)phenyl]-3-furyl}methoxy)phenyl]thio}propionic acid]",108 to 109
19,"CCCN(C(=O)c1cc(-c2ccc(F)cc2)oc1C)c1cccc(CSCC(=O)O)c1 [Example 1(2), [(3{[5-(4-Fluorophenyl)-2-methyl-3-furoyl](propyl)amino}benzyl)thio]acetic acid]",140 to 141
20,"Cc1nc(CCCc2cc(-c3ccc(C(F)(F)F)cc3)oc2C)sc1CC(=O)O [Example 13(4), [4-Methyl-2-(3-{2-methyl-5-[4-(trifluoromethyl)phenyl]-3-furyl}propyl)-1,3-thiazol-5-yl]acetic acid]",162 to 163
21,"CCc1oc(-c2ccc(C(F)(F)F)cc2)cc1CCCOc1cccc(CC(=O)O)c1C [Example 6(50), [3-(3-{2-Ethyl-5-[4-(trifluoromethyl)phenyl]-3-furyl}propoxy)-2-methylphenyl]acetic acid]",109 to 110

# More lines, now with the values ahead:
row,melting point [°C],SMILES
1,153 to 154,"Cc1oc(-c2ccc(C(F)(F)F)cc2)cc1COc1ccc2sc(CC(=O)O)cc2c1 [Example 6(101), [5-({2-Methyl-5-[4-(trifluoromethyl)phenyl]-3-furyl}methoxy)-1-benzothien-2-yl]acetic acid]"
2,61 to 62,"CCCC(SCc1cccc(OCc2cc(-c3ccc(C(F)(F)F)cc3)oc2C)c1)C(=O)O (stereo not drawn) [Example 9(4), 2-{[3-({2-Methyl-5-[4-(trifluoromethyl)phenyl]-3-furyl}methoxy)benzyl]thio}pentanoic acid]"
3,82 to 83,"Cc1oc(-c2ccc(C(F)(F)F)cc2)cc1COc1ccc(OC(C)(C)C(=O)O)c(F)c1 [Example 6(68), 2-[2-Fluoro-4-({2-methyl-5-[4-(trifluoromethyl)phenyl]-3-furyl}methoxy)phenoxy]-2-methylpropionic acid]"
4,134 to 135,"Cc1oc(-c2ccc(C(F)(F)F)cc2)cc1CCCOc1ccc(OCC(=O)O)cc1 [Example 6(25), [4-(3-{2-Methyl-5-[4-(trifluoromethyl)phenyl]-3-furyl}propoxy)phenoxy]acetic acid]"
5,92 to 94,"Cc1oc(-c2ccc(C(F)(F)F)cc2)cc1CCOc1cccc(CC(=O)O)c1 [Example 6(83), [3-(2-{2-Methyl-5-[4-(trifluoromethyl)phenyl]-3-furyl}ethoxy)phenyl]acetic acid]"
6,128 to 129,"Cc1oc(-c2ccc(C(F)(F)F)cc2)cc1COc1ccc(SC(C)(C)C(=O)O)cc1 [Example 6(88), 2-Methyl-2-{[4-({2-methyl-5-[4-(trifluoromethyl)phenyl]-3-furyl}methoxy)phenyl]thio}propionic acid]"
7,129 to 131,"CCCc1cc(OCc2cc(-c3ccc(C(F)(F)F)cc3)oc2C)ccc1CCC(=O)O [Example 6(91), 3-[4-({2-Methyl-5-[4-(trifluoromethyl)phenyl]-3-furyl}methoxy)-2-propylphenyl]propionic acid]"
8,111 to 113,"Cc1oc(-c2ccc(C(F)(F)F)cc2)cc1CCCOc1cccc(CC(=O)O)c1 [Example 6(84), [3-(3-{2-Methyl-5-[4-(trifluoromethyl)phenyl]-3-furyl}propoxy)phenyl]acetic acid]"
9,182 to 183,"Cc1oc(-c2ccc(C(F)(F)F)cc2)cc1COc1ccc(CCC(=O)O)cc1 [Example 6(123), 3-[4-({2-Methyl-5-[4-(trifluoromethyl)phenyl]-3-furyl}methoxy)phenyl]propionic acid]"
10,140 to 142,"Cc1oc(-c2ccc(C(F)(F)F)cc2)cc1COc1ccc2oc(CC(=O)O)cc2c1 [Example 6(90), [5-({2-Methyl-5-[4-(trifluoromethyl)phenyl]-3-furyl}methoxy)-1-benzofuran-2-yl]acetic acid]"
11,187 to 188,"Cc1oc(-c2ccc(C(F)(F)F)cc2)cc1COc1ccc2sc(CCC(=O)O)cc2c1 [Example 6(103), 3-[5-({2-Methyl-5-[4-(trifluoromethyl)phenyl]-3-furyl}methoxy)-1-benzothien-2-yl]propionic acid]"
12,158 to 159,"Cc1oc(-c2ccc(C(F)(F)F)cc2)cc1COc1ccc2sc(CSC(C)(C)C(=O)O)cc2c1 [Example 6(107), 2-Methyl-2-({[5-({2-methyl-5-[4-(trifluoromethyl)phenyl]-3-furyl}methoxy)-1-benzothien-2-yl]methyl}thio)propionic acid]"
13,178 to 179,"Cc1oc(-c2ccc(C(F)(F)F)cc2)cc1COc1cccc(-c2cccc(C(=O)O)c2)c1 [Example 6(125), 3′-({2-Methyl-5-[4-(trifluoromethyl)phenyl]-3-furyl}methoxy)-1,1′-biphenyl-3-carboxylic acid]"
14,147 to 149,"Cc1cc(OCc2cc(-c3ccc(C(F)(F)F)cc3)oc2C)ccc1CC(=O)O [Example 6(3), [2-Methyl-4-({2-methyl-5-[4-(trifluoromethyl)phenyl]-3-furyl}methoxy)phenyl]acetic acid]"
15,82 to 83,"Cc1oc(-c2ccc(C(F)(F)F)cc2)cc1COc1cccc(CSC(C)C(=O)O)c1 (stereo not drawn) [Example 9(1), 2-{[3-({2-Methyl-5-[4-(trifluoromethyl)phenyl]-3-furyl}methoxy)-benzyl]thio}propionic acid]"
